Measurements published in patent publication US7947704B2, “2,4,6-phenyl-substituted cyclic ketoenols” (Bayer CropScience AG, priority 2004, dated 2011).

Columns and labels:
Type in all cases: in vivo
[1] = tested on: Summer barley; experiment: Herbicidal action and safener action, post-emergence, container trials with cereal
Method: (§1) Herbicidal Action and Safener Action, Pre-emergence or Post-emergence
(§2) Seeds of rhizome pieces of monocotyledonous and dicotyledonous harmful plants and of crop plants are placed into sandy loam in pots made of peat, covered with soil and cultivated in a greenhouse under growth conditions. In the pre-emergence application, safener and herbicide are applied after sowing, the post-emergence treatment is carried out about two to three weeks after sowing, at the three-leaf stage of the test plants. The herbicide/safener active compound combinations according to the invention, formulated as emulsion concentrates, and in parallel experiments the correspondingly formulated individual active compounds are, at various dosages at a water application rate of 300 l/ha (converted), sprayed onto the surface of the soil when applied by the pre-emergence method and onto the green parts of the plants when applied by the post-emergence method. Pre-emergence evaluation is carried out after 2-4 weeks, post-emergence evaluation is carried out after 1-3 weeks. During this time, the test plants are kept in a greenhouse under optimum growth conditions. The effect of the preparation is scored visually in comparison to untreated controls.
(§3) Container trials with cereal in the greenhouse.
(§4) Safener and herbicide were applied successively to the plants by the post-emergence method (application rates: see Tables)

[2] = tested on: Summer wheat; experiment: as above
Method: as §1, §2, §3, §4

[3] = tested on: Winter wheat; experiment: as above
Method: as §1, §2, §3, §4

[4] = tested on: Maize; experiment: Safener action after seed dressing, herbicide pre-emergence; conditions: seed not safener-dressed
Method: Safener Action after Seed Dressing
The number of crop plant seeds needed for each safener application rate was calculated. Based on the weight of 100 seeds, sufficient seeds were weighed into screw top glass bottles approximately twice the volume of the seeds.
The prospective safeners were formulated as wettable powders or water-dispersible granules. These formulations were weighed out so that the required application rates (g of a.i./kg of seed) were obtained. The samples were added to the seeds in the bottles, followed by sufficient water to produce a seed dressing. The bottles were closed and then placed in an overhead shaker (set at medium speed for a period of up to one hour) so that the seeds were evenly coated with the seed dressing. The bottles were opened and the seeds were used in the pre-emergence tests.
Pre-emergence Application of Herbicides
The safener-treated seeds and untreated seeds as controls were sown in a sandy loam soil in round pots having a diameter of 7 to 13 cm and covered with approximately 0.5 to 1 cm of a 1:1 mix of sandy loam soil and sand. The herbicides, as liquid (for example emulsifiable concentrates) or dry (for example wettable powders) formulations, were diluted to the required concentrations using deionized water and applied to the soil surface using a track sprayer calibrated to deliver 300 liters of spray solution per hectare.
The pots were placed under good growing conditions in a greenhouse, and a visual assessment of the herbicidal effects was made 3 to 4 weeks after the application of the herbicide. The assessment was on a percentage basis in comparison to untreated control plants (0%=no damage, 100%=complete kill).
Herbicide application by the pre-emergence method, safener-dressed: […]

[5] = tested on: Myzus persicae; experiment: Myzus Test (spray treatment); conditions: 500 g/ha; after 5 d
[6] = tested on: Meloidogyne incognita; experiment: Meloidogyne Test (gall formation on lettuce roots); conditions: 20 ppm; after 14 d
Method: To produce a suitable preparation of active compound, 1 part by weight of active compound is mixed with the stated amounts of solvent and emulsifier, and the concentrate is diluted with water to the desired concentration.
Containers are filled with sand, solution of active compound, Meloidogyne incognita egg/larvae suspension and lettuce seeds. The lettuce seeds germinate and the plants develop. On the roots, galls are formed.
After the desired period of time, the nematicidal action is determined in % by gall formation. 100% means that no galls were found; 0% means that the number of galls on the treated plants corresponds to that of the untreated control.

[7] = tested on: Maize; experiment: Herbicidal action and safener action, safener and herbicide applied successively pre-emergence
Method: as §1, §2
Safener and herbicide applied successively by the pre-emergence method.

[8] = tested on: Lolium; experiment: Herbicidal pre-emergence action; conditions: 320 g of a.i./ha
Excerpt: (§5) 1. Herbicidal Pre-emergence Action
(§6) Seeds of monocotyledonous and dicotyledonous weed and crop plants are placed into sandy loam in wood fibre pots and covered with soil. The test compounds, formulated in the form of wettable powders (WP), are then, in various dosages as aqueous suspension with a water application rate of 600 l/ha (converted), with 0.2% of wetting agent added, applied to the surface of the covering soil.
(§7) After the treatment, the pots are placed in a greenhouse and kept under good growth conditions for the test plants. The visual assessment of the emergence damage on the test plants is carried out after a trial period of 3 weeks by comparison with untreated controls (herbicidal effect in percent (%): 100% effect=the plants have died, 0% effect=like control plants).

[9] = tested on: Setaria; experiment: Herbicidal pre-emergence action; conditions: 320 g of a.i./ha
Excerpt: as §5, §6, §7

[10] = application rate 25 g of a.i./ha
[11] = application rate 50 g of a.i./ha
[12] = application rate 100 g of a.i./ha
[13] = herbicide pre-emergence 25 g of a.i./ha
[14] = herbicide pre-emergence 50 g of a.i./ha

## CCOc1cc(C)cc(Cl)c1C1=C(O)C2(CCC(OC)CC2)NC1=O (single isomer, unassigned) [Example I-1-a-5]
[1]; [10]
  Summer barley (%) observed damage: 10%
[1]; [11]
  Summer barley (%) observed damage: 20%
[1]; [12]
  Summer barley (%) observed damage: 20%
[2]; [10]
  Summer wheat (%) damage: 20%
[2]; [11]
  Summer wheat (%) damage: 50%
[2]; [12]
  Summer wheat (%) damage: 60%
[3]; [10]
  Winter wheat (%) observed damage: 10%
[3]; [11]
  Winter wheat (%) observed damage: 30%
[3]; [12]
  Winter wheat (%) observed damage: 60%
[4]; [13]
  Maize (%) damage: 20%
[4]; [14]
  Maize (%) damage: 20%

## CCOC(=O)OC1=C(c2c(Cl)cc(C)cc2OC)C(=O)NC12CCC(OC)CC2 (stereo not drawn) [Example I-1-c-1]
[1]; [10]
  Summer barley (%) observed damage: 10%
[1]; [11]
  Summer barley (%) observed damage: 30%
[1]; [12]
  Summer barley (%) observed damage: 60%
[3]; [10]
  Winter wheat (%) observed damage: 10%
[3]; [11]
  Winter wheat (%) observed damage: 30%
[4]; [13]
  Maize (%) damage: 35%

## COc1cc(C)cc(Cl)c1C1=C(OC(=O)C(C)C)C2(CCCC2)OC1=O [Ex. I-2-b-1]
[5]
  kill rate against Myzus persicae: 100%

## COc1cc(C)cc(Cl)c1C1=C(O)C2(CCC(OC)CC2)OC1=O (stereo not drawn) [Ex. I-2-a-2]
[5]
  kill rate against Myzus persicae: 100%

## COc1cc(C)cc(Cl)c1C1=C(OC(=O)C(C)C)C2(CCC(OC)CC2)NC1=O (stereo not drawn) [Example I-1-b-1]
[1]; [10]
  Summer barley (%) observed damage: 30%
[1]; [11]
  Summer barley (%) observed damage: 40%
[1]; [12]
  Summer barley (%) observed damage: 55%

## COc1cc(C)cc(Cl)c1C1=C(O)C2(CCC(OC)CC2)NC1=O (single isomer, unassigned) [Ex. I-1-a-3]
[6]
  kill rate against Meloidogyne: 100%
[5]
  kill rate against Myzus persicae: 100%

## COc1cc(C)cc(Cl)c1C1=C(OC(=O)C(C)C)C2(CCOCC2)OC1=O [Ex. I-2-b-3]
[5]
  kill rate against Myzus persicae: 100%

## CCOC(=O)OC1=C(c2c(Cl)cc(C)cc2OC)C(=O)OC12CCOCC2 [Ex. I-2-c-3]
[5]
  kill rate against Myzus persicae: 100%

## CCCOc1cc(C)cc(Cl)c1C1=C(O)C2(CCC(OC)CC2)NC1=O (single isomer, unassigned) [Example I-1-a-4]
[1]; [10]
  Summer barley (%) observed damage: 0%
[1]; [11]
  Summer barley (%) observed damage: 10%
[1]; [12]
  Summer barley (%) observed damage: 20%
[2]; [10]
  Summer wheat (%) damage: 20%
[2]; [11]
  Summer wheat (%) damage: 45%
[2]; [12]
  Summer wheat (%) damage: 60%
[3]; [10]
  Winter wheat (%) observed damage: 10%
[3]; [11]
  Winter wheat (%) observed damage: 30%
[3]; [12]
  Winter wheat (%) observed damage: 50%
[7]; [10]
  Maize (%) damage: 10%
[7]; [11]
  Maize (%) damage: 20%
[4]; [13]
  Maize (%) damage: 10%
[4]; [14]
  Maize (%) damage: 20%

## COc1cc(C)cc(Cl)c1C1=C(O)C2(CCCC2)OC1=O [Ex. I-2-a-1]
[5]
  kill rate against Myzus persicae: 100%

## COc1cc(C)cc(Cl)c1C1=C(O)C(C)(C)NC1=O [Ex. I-1-a-2]
[8]
  kill rate against Lolium: ≥ 80%
[9]
  kill rate against Setaria: ≥ 80%

## CCOC(=O)OC1=C(c2c(Cl)cc(C)cc2OC)C(=O)OC12CCCC2 [Ex. I-2-c-1]
[5]
  kill rate against Myzus persicae: 100%

## COc1cc(C)cc(Cl)c1C1=C(O)C2(CCOCC2)NC1=O [Ex. I-1-a-1]
[6]
  kill rate against Meloidogyne: 100%

## CCOC(=O)OC1=C(c2c(Cl)cc(C)cc2OC)C(=O)OC12CCC(OC)CC2 (mixture of isomers) [Ex. I-2-c-2]
[5]
  kill rate against Myzus persicae: 100%
